In ChEMBL document CHEMBL4428132, “Application of Fragment-Based de Novo Design to the Discovery of Selective Picomolar Inhibitors of Glycogen Synthase Kinase-3 Beta” (J Med Chem, 2016) one finds IC50 and Activity data, which are given here for 28 compounds.

Structures are written as SMILES. Where only a bound is given, the exact number is not on record here.

The target of the first test is T1, Glycogen synthase kinase-3 beta (Homo sapiens, UniProt P49841). The test is described as follows: Inhibition of His-tagged full length human recombinant GSK3beta using [YRRAAVPPSPSLSRHSSPHQ-(pS)EDEEE] substrate and pre-incubarted for 20 mins before [gamma-33P]ATP addition and measured after 2 hrs by radiometric kinase assay.
Target sequence in this assay (P49841 whole entry): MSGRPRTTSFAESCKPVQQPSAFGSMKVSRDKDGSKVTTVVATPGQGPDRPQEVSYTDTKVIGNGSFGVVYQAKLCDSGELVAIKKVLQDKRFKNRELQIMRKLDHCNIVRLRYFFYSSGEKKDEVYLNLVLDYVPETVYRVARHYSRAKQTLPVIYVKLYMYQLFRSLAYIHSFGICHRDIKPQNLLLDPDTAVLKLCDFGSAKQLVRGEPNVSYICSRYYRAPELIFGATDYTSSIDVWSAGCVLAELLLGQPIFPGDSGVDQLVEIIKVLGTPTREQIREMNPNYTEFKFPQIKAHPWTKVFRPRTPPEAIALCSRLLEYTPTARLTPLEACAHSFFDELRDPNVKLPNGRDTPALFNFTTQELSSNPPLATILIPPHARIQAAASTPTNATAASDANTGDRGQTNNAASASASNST
For `O=C(/C=C/c1cnc2[nH]cc(-c3ccccc3)c2c1)NCCc1c[nH]c2ncccc12`, the 50% inhibitory concentration (IC50) (usually the point on the concentration scale where inhibition reaches its midpoint) amounted to 0.128 µM.
Still for that read-out and setting: next, `O=C(/C=C/c1cnc2[nH]cc(-c3ccncc3)c2c1)NCc1ccncc1`: 0.00275 µM; `O=C(/C=C/c1cnc2[nH]cc(-c3ccccc3)c2c1)NCCc1ccncc1`: 0.0435 µM.
For the compound `O=C(/C=C/c1cnc2[nH]cc(-c3cccnc3)c2c1)NCc1ccncc1`, the IC50 was determined as 0.0165 µM.
Consider `NC(=O)c1ccc(-c2c[nH]c3ncc(/C=C/C(=O)NCc4ccncc4)cc23)cc1`, for which the 50% inhibitory concentration (IC50) is 0.00443 µM.
On to `O=C(/C=C/c1cnc2[nH]cc(-c3ccc(F)cc3)c2c1)NCc1ccncc1`, for which the IC50 came to 0.0228 µM.
The same measure, in the same setting: under `CS(=O)(=O)c1ccc(-c2c[nH]c3ncc(/C=C/C(=O)NCc4ccncc4)cc23)cc1` stands 0.22 µM; under `CC(=O)c1ccc(-c2c[nH]c3ncc(/C=C/C(=O)NCCc4ccccn4)cc23)cc1`, 0.00137 µM.
With `O=C(/C=C/c1cnc2[nH]cc(-c3ccccc3)c2c1)NCc1nc2ccccc2[nH]1`, the IC50 stood at 0.0621 µM.
Regarding `O=C(/C=C/c1cnc2[nH]cc(-c3ccccc3)c2c1)NCCc1ccccc1`, the IC50 is 0.248 µM.
In the case of `O=C(CCc1cnc2[nH]cc(-c3ccccc3)c2c1)NCCc1c[nH]c2ccccc12`, the concentration for half-maximal inhibition (IC50) is 1.03 µM.
As to `O=C(/C=C/c1cnc2[nH]cc(-c3ccccc3)c2c1)NCc1ccc2c(c1)CCO2`, the concentration for half-maximal inhibition (IC50) was determined as 0.103 µM.
On the same count and under the same terms, under `COc1ccc(-c2c[nH]c3ncc(/C=C/C(=O)NCc4ccncc4)cc23)cc1` stands 0.000508 µM; under `O=C(CNC(=O)c1cnc2[nH]cc(-c3ccccc3)c2c1)NCCc1c[nH]c2ccccc12`, 1.45 µM; under `O=C(/C=C/c1cnc2[nH]cc(-c3ccccc3)c2c1)NCc1ccncc1`, 0.00359 µM.
Regarding `O=C(/C=C/c1cnc2[nH]cc(-c3ccccc3)c2c1)NCCN1CCOCC1`, the concentration for half-maximal inhibition (IC50) turned out to be 0.0457 µM.
In the case of `O=C(CNC(=O)c1ccc2[nH]cc(-c3ccncc3)c2c1)NCCc1c[nH]c2ccccc12`, the IC50 was found to be 33.8 µM.
Regarding `O=C(CNC(=O)c1cnc2[nH]cc(-c3ccncc3)c2c1)NCCc1c[nH]c2ccccc12`, the IC50 came to 0.994 µM.
As to `O=C(/C=C/c1cnc2[nH]cc(-c3ccccc3)c2c1)NCc1ccco1`, the half-inhibitory concentration (IC50) amounted to 0.0771 µM.
Still for that read-out and setting: next, `O=C(CNC(=O)c1ccc2noc(-c3ccccc3)c2c1)NCCc1c[nH]c2ccccc12`: over 50 µM; `O=C(C/C=C/c1cnc2[nH]cc(-c3ccccc3)c2c1)NCCc1ccccc1`: over 50 µM.
Take `CC(=O)c1ccc(-c2c[nH]c3ncc(/C=C/C(=O)NCc4ccncc4)cc23)cc1`: the half-maximal inhibitory concentration (IC50) amounted to 0.00142 µM.
For `N#Cc1ccc(-c2c[nH]c3ncc(/C=C/C(=O)NCc4ccncc4)cc23)cc1`, the IC50 stood at 0.0631 µM.
Still for that read-out and setting: under `O=C(/C=C/c1cnc2[nH]cc(-c3ccccc3)c2c1)NCCc1c[nH]c2ccccc12` stands 0.356 µM.
The same measure, in the same setting: next, `O=C(C/C=C/c1cnc2[nH]cc(-c3ccccc3)c2c1)NCCc1c[nH]c2ccccc12`: 3.76 µM; `O=C(/C=C/c1cnc2[nH]cc(-c3ccccc3)c2c1)NCc1ccc2[nH]ccc2c1`: 0.462 µM.
On to `O=C(/C=C/c1cnc2[nH]cc(-c3ccccc3)c2c1)NCc1ccccn1`, for which the concentration for half-maximal inhibition (IC50) came out at 0.167 µM.
Turning to `O=C(/C=C/c1cnc2[nH]cc(-c3ccccc3)c2c1)NCc1cccnc1`, the half-maximal inhibitory concentration (IC50) worked out at 0.0642 µM.

In another test the target is Aurora kinase B (Homo sapiens) (UniProt Q96GD4). The test is described as follows: Inhibition of Aurora kinase B (unknown origin) assessed as remaining enzyme activity at 1 uM.
Aurora kinase B (Homo sapiens), sequence (Q96GD4 whole entry): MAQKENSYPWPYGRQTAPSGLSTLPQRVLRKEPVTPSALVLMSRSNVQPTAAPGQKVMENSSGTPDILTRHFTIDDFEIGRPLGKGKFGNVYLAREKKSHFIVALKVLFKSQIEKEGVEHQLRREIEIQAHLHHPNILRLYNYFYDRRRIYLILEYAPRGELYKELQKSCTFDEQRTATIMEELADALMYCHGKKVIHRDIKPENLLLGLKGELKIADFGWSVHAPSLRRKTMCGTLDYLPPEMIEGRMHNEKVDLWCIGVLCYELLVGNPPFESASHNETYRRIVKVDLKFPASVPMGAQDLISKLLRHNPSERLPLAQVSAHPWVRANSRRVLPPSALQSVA
For `CC(=O)c1ccc(-c2c[nH]c3ncc(/C=C/C(=O)NCCc4ccccn4)cc23)cc1`, the Activity was 23%.

The next test addresses T1, Glycogen synthase kinase-3 beta. The test is described as follows: Inhibition of GSK3beta (unknown origin) assessed as remaining enzyme activity at 1 uM.
Target sequence in this assay (P49841 whole entry, looked up): as the sequence (P49841 whole entry) above
Turning to `CC(=O)c1ccc(-c2c[nH]c3ncc(/C=C/C(=O)NCCc4ccccn4)cc23)cc1`, the Activity was 3.4%.
On to `COc1ccc(-c2c[nH]c3ncc(/C=C/C(=O)NCc4ccncc4)cc23)cc1`, for which the Activity was found to be 1.2%.

In another test the target is Cyclin-dependent kinase 2 (Homo sapiens) (UniProt P24941). Nature of the test: Inhibition of CDK2 (unknown origin) assessed as remaining enzyme activity at 1 uM.
As for `CC(=O)c1ccc(-c2c[nH]c3ncc(/C=C/C(=O)NCCc4ccccn4)cc23)cc1`, the Activity worked out at 85%.
`COc1ccc(-c2c[nH]c3ncc(/C=C/C(=O)NCc4ccncc4)cc23)cc1`: the Activity turned out to be 97%.

The subject of a further test is MDA-MB-231. The test is described as follows: Antiproliferative activity against human MDA231 cells by MTT assay. It counts as functional, cell-based. Background: Tetrazolium assays rely on reduction of a dye to a coloured formazan, in cell work by metabolically active cells.
Take `CC(=O)c1ccc(-c2c[nH]c3ncc(/C=C/C(=O)NCCc4ccccn4)cc23)cc1`: the IC50 was over 10 µM.
In turn, `COc1ccc(-c2c[nH]c3ncc(/C=C/C(=O)NCc4ccncc4)cc23)cc1` gave an IC50 of over 10 µM.

For the next test, the system named is MCF7. The test is described as follows: Antiproliferative activity against human MCF7 cells by MTT assay. It counts as functional, cell-based.
The compound `CC(=O)c1ccc(-c2c[nH]c3ncc(/C=C/C(=O)NCCc4ccccn4)cc23)cc1` returned an IC50 of over 10 µM.
The same measure, in the same setting: under `COc1ccc(-c2c[nH]c3ncc(/C=C/C(=O)NCc4ccncc4)cc23)cc1` stands over 10 µM.

The next test concerns SK-BR-3. Nature of the test: Antiproliferative activity against human SKBR3 cells by MTT assay. It counts as functional, cell-based.
`CC(=O)c1ccc(-c2c[nH]c3ncc(/C=C/C(=O)NCCc4ccccn4)cc23)cc1`: the concentration for half-maximal inhibition (IC50) is over 10 µM.
Still for that read-out and setting: next, `COc1ccc(-c2c[nH]c3ncc(/C=C/C(=O)NCc4ccncc4)cc23)cc1`: over 10 µM.
